The text below walks through data of article PMC6332299, “Nonprenylated Xanthones from Gentiana lutea, Frasera caroliniensis, and Centaurium erythraea as Novel Inhibitors of Vascular Smooth Muscle Cell Proliferation” (Molecules, 2015).

What all share (format): cell-based
For data set [1], the system named is rat aortic VSMC. Put plainly: Resazurin conversion assay of PDGF-induced VSMC proliferation. The note with it: for IC50 / activity at 30 µM: PDGF-BB 20 ng/mL; for IC50: concentrations 1, 3, 10, 30 µM, read-out: Inhibition of VSMC Proliferation, Resazurin Conversion Assay, IC50; for activity at 30 µM: 30 µM compound, residual proliferation relative to PDGF + 0.1% DMSO control = 1.00, means ± SD, n = 3, read-out: Inhibition of VSMC Proliferation, Resazurin Conversion Assay, at 30 µM (Relative to Solvent vehicle = 1.00, RU); for Anti-proliferative activity in rat aortic VSMC (in words): summary rating of the 14 xanthones. As for the experimental part: With the aim to identify novel natural product inhibitors of VSMC proliferation, we tested several natural products (not shown) from our in-house compound collection on their ability to inhibit proliferation of rat aortic VSMC induced by the platelet-derived growth factor (PDGF), which is a mitogen strongly associated with aberrant proliferation in restenosis and leads to excessive proliferation of VSMC. After stimulation of the VSMC for 48 h with PDGF, the total number of metabolically active cells was measured by resazurin conversion. In this way, the xanthone gentisin (1,7-dihydroxy-3-methoxyxanthone (1)), previously isolated from the root material of G. lutea, a well-known medicinal bitter plant from the Gentianaceae family, was identified as a novel inhibitor of VSMC proliferation. […] Although an anti-proliferative effect of a prenylated xanthone has been described earlier, it represents a novel activity for simple, nonprenylated xanthones.
(§1) Rat aortic VSMC were acquired from Lonza and grown in Dulbecco’s modified essential medium (DMEM)–F12 (1:1) supplemented with 20% fetal calf serum (FCS) and gentamycin. For all experiments, cells were seeded in 96-well plates (5 × 10^3 cells/well) and incubated for 24 h. Subsequently, cells were serum-starved for another 24 h to make them quiescent.
Quiescent VSMC were pre-treated with the studied test compounds, G. lutea root extract, or vehicle (0.1% DMSO) for 30 min and then stimulated with PDGF-BB (20 ng/mL) for 48 h. The number of metabolically active VSMC was measured by resazurin conversion. Therefore, after washing the cells with phosphate-buffered saline (PBS), they were incubated in serum-free medium containing resazurin (10 µg/mL) for 2 h. Measurement of total metabolic activity was performed by monitoring the increase in fluorescence at 590 nm using an excitation wavelength of 535 nm in a 96-well plate reader (Tecan GENios Pro, Grödig, Austria). The assay was validated using the VSMC proliferation inhibitor taxol (IC50 = 0.1 µM [21]).
A general note: Alamar Blue is a resazurin reagent that responds to reducing activity.

For data set [2], the system named is rat aortic VSMC. As to the kind of experiment: Assessment of cytotoxicity by LDH release. The following applies: concentration range up to 30 µM; PDGF-BB 20 ng/mL, 24 h. As for the experimental part: Loss of VSMC membrane integrity as a sign for cell death was quantified by measuring the release of the soluble cytosolic protein LDH.
as §1
Quiescent VSMC were pre-treated with test compounds, positive control (digitonin 100 µg/mL, corresponding to 81 µM), or vehicle (0.1% DMSO) for 30 min and then stimulated with PDGF-BB (20 ng/mL) for 24 h. Loss of cell membrane integrity as an indicator for cell death was quantified by measuring the release of LDH [31, 32]. Therefore, the LDH activity of the cell supernatant was determined. To estimate total LDH, identically treated samples were incubated in the presence of 1% Triton X-100 for 45 min. […] The enzyme reaction was stopped by oxymate (1.78 mg/mL) and the absorbance was read at 490 nm. The percentage of extracellular LDH enzyme activity was calculated to estimate potential effects of the samples on cell viability.

The test system of data set [3] is rat aortic VSMC. Put plainly: BrdU incorporation assay (DNA synthesis) in PDGF-stimulated VSMC. The note with it: PDGF-BB 20 ng/mL, BrdU added after 2 h, read after 22 h, read-out: Inhibition of VSMC Proliferation, BrdU Assay, IC50. How it is done:
In this assay, the DNA synthesis in dividing VSMC is measured by quantification of BrdU incorporation into newly synthesized DNA.
as §1
Quiescent VSMC were pre-treated with test compounds or vehicle (0.1% DMSO) for 30 min and then stimulated with PDGF-BB (20 ng/mL) for 2 h. Subsequently, BrdU was added to estimate de novo DNA synthesis in VSMC [29, 30]. After 22 h, the BrdU incorporation was determined according to the instructions of the manufacturer (Roche Diagnostics, Vienna, Austria).
In general terms: Incorporation of labelled thymidine or its analogues reports DNA synthesis.

[4] abbreviates: Rattus norvegicus, VSMC, 48 h, 48 h.

With `COc1cc(O)c2c(=O)c3cc(O)ccc3oc2c1` [Compound 1, 1,7-dihydroxy-3-methoxyxanthone], the “Inhibition of PDGF-induced VSMC proliferation at 30 µM (in words)” value in the data set on rat aortic VSMC [1] (30 µM, 48 h, resazurin conversion) is on record as “completely inhibited PDGF-induced proliferation to the basal level”. For the same compound, the IC50 in the data set with rat aortic VSMC [1] (48 h) worked out at 7.84 µM; with rat aortic VSMC [1] (setting [4]) it was 7.8 µM; in the data set with rat aortic VSMC [3], 5.74 µM. In the data set on rat aortic VSMC [1] (Rattus norvegicus, VSMC, 48 h), the activity at 30 µM was determined as 33.5 ± 17.5%. Moreover, the “Anti-proliferative activity in rat aortic VSMC (in words)” value (“Anti-proliferative activity” for short) with rat aortic VSMC [1] is listed as “most potent compound”. The “Cytotoxicity (LDH release in the culture medium)” value (“Cytotoxicity” for short) in the data set with rat aortic VSMC [2] was “not cytotoxic”.

In the case of `COc1ccc2oc3cc(O)cc(O)c3c(=O)c2c1` [Compound 2, 1,3-dihydroxy-7-methoxyxanthone], the IC50 with rat aortic VSMC [1] (setting [4]) came out at 27 µM. In addition, the activity at 30 µM in the data set with rat aortic VSMC [1] (Rattus norvegicus, VSMC, 48 h) was 59.3 ± 8.4%. The “Anti-proliferative activity” value with rat aortic VSMC [1] is recorded as “moderately active”.

Take `COc1cc2oc3c(OC)cccc3c(=O)c2c(O)c1OC` [Compound 3, 1-hydroxy-2,3,5-trimethoxyxanthone]: in the data set on rat aortic VSMC [1] (Rattus norvegicus, VSMC, 48 h), the activity at 30 µM was determined as 83.2 ± 10.4%. Moreover, in the data set with rat aortic VSMC [1], the “Anti-proliferative activity” value was “weakly active or inactive”.

On to `COc1c(OC)c(O)c2c(=O)c3cccc(OC)c3oc2c1OC` [Compound 4, 1-hydroxy-2,3,4,5-tetramethoxyxanthone], for which the IC50 worked out at 11.2 µM with rat aortic VSMC [1] (setting [4]) and 24.5 µM in the data set on rat aortic VSMC [3]. For the same compound, in the data set with rat aortic VSMC [1] (Rattus norvegicus, VSMC, 48 h), the activity at 30 µM was 21.6 ± 5.8%. The “Anti-proliferative activity” value with rat aortic VSMC [1] is reported as “potent inhibitory activity”. In the data set with rat aortic VSMC [2], the “Cytotoxicity” value is recorded as “not cytotoxic”.

As to `COc1ccc2oc3c(OC)c(OC)c(OC)c(O)c3c(=O)c2c1` [Compound 5, 1-hydroxy-2,3,4,7-tetramethoxyxanthone], the activity at 30 µM in the data set on rat aortic VSMC [1] (Rattus norvegicus, VSMC, 48 h) came to 75.4 ± 1.4%. In the data set on rat aortic VSMC [1], the “Anti-proliferative activity” value was “weakly active or inactive”.

In the case of `COc1cc(O)c2c(=O)c3c(O)ccc(OC)c3oc2c1` [Compound 6, 1,8-dihydroxy-3,5-dimethoxyxanthone], the IC50 in the data set on rat aortic VSMC [1] (setting [4]) is 12.5 µM; in the data set on rat aortic VSMC [3] it was 7.37 µM. For the same compound, the activity at 30 µM in the data set on rat aortic VSMC [1] (Rattus norvegicus, VSMC, 48 h) was found to be 51.4 ± 6.7%. In addition, the “Anti-proliferative activity” value with rat aortic VSMC [1] is reported as “potent inhibitory activity”. Further, in the data set on rat aortic VSMC [2], the “Cytotoxicity” value is reported as “not cytotoxic”.

Consider `COc1cc(O)c2c(=O)c3c(O)c(OC)ccc3oc2c1` [Compound 7, 1,8-dihydroxy-3,7-dimethoxyxanthone], for which the results for the IC50 in the data set with rat aortic VSMC [1] (setting [4]) and with rat aortic VSMC [3] were 10.2 µM and 7.53 µM, respectively. In addition, the activity at 30 µM in the data set with rat aortic VSMC [1] (Rattus norvegicus, VSMC, 48 h) is 0.2 ± 1.4%. Moreover, in the data set with rat aortic VSMC [1], the “Anti-proliferative activity” value is “potent inhibitory activity”. For the same compound, in the data set with rat aortic VSMC [2], the “Cytotoxicity” value is listed as “not cytotoxic”.

In the case of `COc1cc(O)c2c(=O)c3cccc(O)c3oc2c1` [Compound 8, 1,5-dihydroxy-3-methoxyxanthone], the IC50 with rat aortic VSMC [1] (setting [4]) was found to be 29.5 µM. The activity at 30 µM in the data set with rat aortic VSMC [1] (Rattus norvegicus, VSMC, 48 h) worked out at 71.3 ± 6.1%. For the same compound, the “Anti-proliferative activity” value with rat aortic VSMC [1] is reported as “moderately active”.

Turning to `COc1cc(O)c2c(=O)c3c(O)ccc(O)c3oc2c1` [Compound 9, 1,5,8-trihydroxy-3-methoxyxanthone], the activity at 30 µM in the data set with rat aortic VSMC [1] (Rattus norvegicus, VSMC, 48 h) stood at 78.3 ± 3.1%.

Consider `COc1cc(O)c2c(=O)c3ccc(O)c(OC)c3oc2c1` [Compound 10, 1,6-dihydroxy-3,5-dimethoxyxanthone], for which, in the data set with rat aortic VSMC [1] (Rattus norvegicus, VSMC, 48 h), the activity at 30 µM amounted to 98.7 ± 2.5%.

Regarding `COc1c(O)cc2oc3c(OC)c(O)ccc3c(=O)c2c1O` [Compound 11, 1,3,6-trihydroxy-2,5-dimethoxyxanthone], the activity at 30 µM with rat aortic VSMC [1] (Rattus norvegicus, VSMC, 48 h) was 94.2 ± 4.2%.

Regarding `COc1cc(O)c2c(=O)c3c(OC)c(OC)c(O)c(OC)c3oc2c1` [Compound 12, 1,6-dihydroxy-3,5,7,8-tetramethoxyxanthone], the activity at 30 µM with rat aortic VSMC [1] (Rattus norvegicus, VSMC, 48 h) came to 86.2 ± 6.8%.

Consider `COc1cc(O)c2c(=O)c3c(O)c(OC)c(O)c(OC)c3oc2c1` [Compound 13, 1,6,8-trihydroxy-3,5,7-trimethoxyxanthone], for which, in the data set with rat aortic VSMC [1] (Rattus norvegicus, VSMC, 48 h), the activity at 30 µM was found to be 84.6 ± 9.6%.

Turning to `COc1c(O)cc2oc3c(O)cccc3c(=O)c2c1O` [Compound 14, 1,3,5-trihydroxy-2-methoxyxanthone], the activity at 30 µM with rat aortic VSMC [1] (Rattus norvegicus, VSMC, 48 h) was 86.2 ± 10.4%.
